Experimental data as given in paper PMC11901700, “A Sweet Almond Globulin Multifunctional Peptide: Identification, In Silico Screening, Restraint Mechanisms to Keap1 and ACE, and Antihypertensive and Ferrous Transport Efficiency” (Nutrients, 2025).
Where no end group is shown, it is not given here.

Legend:
[1] = Reducing power (potassium ferricyanide method); type: physicochemical; settings: at 100 μg/mL, absorbance at 700 nm
From the text: The potassium ferricyanide method was employed to determine the reducing power of the SAGH peptides at the same conditions reported by Wang et al., where the absorbance at 700 nm represented the reducing power.

[2] = Gastrointestinal stability of peptide–ferrous chelate (ferrous solubility in simulated digestion); type: in vitro ADME
Procedure: Next, the intestinal digestive fluid was added, and digestion was continued at pH 6.8 for 2 h in the EDZF-C002 thermostatic vibrator ([…], 175 rpm).

[3] = Superoxide radical scavenging activity (pyrogallol auto-oxidation method); type: physicochemical; settings: at 100 μg/mL
Procedure: As described by Wang et al. and Vásquez et al., the hydroxyl (·OH) and superoxide ( O2−· ) radicals’ scavenging activity was measured using the β-deoxyribose oxidation and pyrogallol auto-oxidation methods, respectively. The comparison was conducted when the samples were replaced by glutathione (0.1 mg/mL).

[4] = system: spontaneously hypertensive rats (SHRs); experiment: Effects on blood pressures of spontaneously hypertensive rats; type: in vivo, rat
Procedure: Spontaneously hypertensive rats (SHRs, each weighting approximately 250 g, 14 weeks old) were obtained from Vitonglihua Test Animal Biotech. Co., Ltd. (Beijing, China) and used to investigate the hypotensive ability of ACE inhibitory and antioxidant SAGH peptides. After 7 days of adaptation, the SHRs were assigned to the blank, positive, SAGH peptides, and SAGH peptide–ferrous chelate groups (each group contained six SHRs), which were orally administered NaCl ([…]), captopril (14 mg per body weight kg), peptides (50, 150, and 200 mg per body weight kg), and peptide–ferrous chelates (50, 150, and 200 mg per body weight kg) every day, respectively. At 0, 120, 360, and 600 min after oral administration, the systolic and diastolic blood pressures and heart rates of the SHRs were measured using a NIBP-M1 Rat-tail noninvasive blood pressure monitor (Yuyan Scientific Instrument Co., Ltd., Shanghai, China) following the tail cuff method.

[5] = listed as PMYGGGMV–ferrous chelates

Substance: PMYGGGMV–ferrous chelate: chelate prepared by reacting the peptide with FeCl2 at pH 6.5 (also: ferrous iron chelate (reaction with FeCl2))
- Reducing Power Before Gastrointestinal Digestion [1]: 0.179 ± 0.003 e
- Reducing Power Before Gastrointestinal Digestion [1, 5]: 0.179
- ferrous solubility during gastric digestion ([2]; 0–90 min, simulated gastric fluid pH 1.9, 37 °C, 175 rpm, soluble ferrous by o-phenanthroline every 30 min, N = 3): relatively stable
- ferrous solubility during intestinal digestion ([2]; 91–240 min, intestinal digestive fluid pH 6.8, soluble ferrous by o-phenanthroline, p < 0.05): apparently decreased
- ferrous solubility compared with ferrous lactate and ferrous chloride ([2]; from 90 to 150 min of simulated gastrointestinal digestion, p < 0.05): much higher than those of ferrous lactate and ferrous chloride
- Superoxide Radical Scavenging Ability (%) Before Gastrointestinal Digestion [3]: 75.49 ± 4.09 b %
- Superoxide Radical Scavenging Ability (%) Before Gastrointestinal Digestion [3, 5]: 75.49%
- dose dependence of blood pressure lowering effect ([4]; oral, 50, 150 and 200 mg/kg body weight, p > 0.05): not dose-dependent
- effect on diastolic and systolic blood pressures ([4]; oral, 50–200 mg/kg body weight, from 1 h of dosing, tail cuff method, p < 0.05): apparently lowered the diastolic and systolic blood pressures
